# From patent US4698350A, “1-ethyl-6-fluoro-1,4-dihydro- 7-(2,6-dimethyl-4-pyridinyl)-4-oxo-3-quinolinecarboxylic acid and antibacterial use thereof” (Sterling Drug Inc., priority 1984, dated 1987)
# Experiments:
# Assay in all cases: In vitro antibacterial MIC/MBC test
# Assay type in all cases: cell-based
# S. aureus (25923) = conditions: Staphylococcus aureus, ATCC25923
# Method: (§1) Win 52,522 and Win 35,439 were solubilized in 0.1 ml of 0.5 N NaOH/mg of compound and diluted in sterile distilled water to 160 mcg/ml. Vancomycin and methicillin were solubilized in sterile distilled water to 1250 mcg/ml of base compound. The stock solutions were sterilized by filtration through membrane filters with a 0.45 μm pore size.
# (§2) The bacterial cultures listed in Table I (hereinbelow) were grown overnight at 37° C. in MHB for all cultures except the Streptococcus strains. These were grown in BHI+10% NHS. The overnight broth cultures were adjusted to an optical density of 0.10 (650 nm, B L Spectronic 20) in sterile distilled water and subsequently diluted to 6.7×10^6 cells/ml in MHB or BHI+1% NHS.
# (§3) Serial two-fold dilutions of the compound solutions were prepared in MHB (or in BHI+1% NHS for tests with Streptococci) and dispensed into 96-well microtiter trays in a volume of 0.1 ml/well using a Sandy Springs (Bellco Glass Co.) dispenser. The trays were then inoculated with 0.0015 ml of a suspension containing 6.7×10^6 cells/ml of the appropriate inoculum using a MIC-2000 inoculator (Dynatech Corp.) resulting in a final inoculum of approximately 1×10^4 cells/well or 1×10^5 cells/ml. The trays were incubated at 37° C. for 18-20 hours and the minimal inhibitory concentration (MIC), defined as the lowest concentration of compound to inhibit visible bacterial growth, was recorded.
# (§4) After the MIC values were recorded, the contents in the microtiter trays were thoroughly mixed on a Bellco Mini-orbital Shaker (Bellco Glass Co.) for 3 min. at a setting of 8. A portion (0.0015 ml) from each well was then transferred via an MIC-2000 inoculator to plates containing MHA or BHI agar+10% NHS. The plates were incubated at 37° C. for 18-20 hrs. The minimal bactericidal concentration (MBC), defined as the lowest concentration of compound that prevented the formation of a recognizable colony on the agar surface, was recorded.
# S. aureus 10-81 = conditions: Staphylococcus aureus, 1081
# Method: as §1, §2, §3, §4
# S. aureus 13-8-A = conditions: Staphylococcus aureus, 138A
# Method: as §1, §2, §3, §4
# S. aureus 21-81A = conditions: Staphylococcus aureus, 2181A
# Method: as §1, §2, §3, §4
# S. aureus 24-81 = conditions: Staphylococcus aureus, 2481
# Method: as §1, §2, §3, §4
# S. aureus 34-81 = conditions: Staphylococcus aureus, 3481
# Method: as §1, §2, §3, §4
# S. aureus 39881 = conditions: Staphylococcus aureus, 39881
# Method: as §1, §2, §3, §4
# S. aureus 4-81 = conditions: Staphylococcus aureus, 481
# Method: as §1, §2, §3, §4
# S. aureus 41-81 = conditions: Staphylococcus aureus, 4181
# Method: as §1, §2, §3, §4
# S. aureus Glorgio = conditions: Staphylococcus aureus
# Method: as §1, §2, §3, §4
# S. aureus S-234 = conditions: Staphylococcus aureus, S234
# Method: as §1, §2, §3, §4
# S. aureus S-500 = conditions: Staphylococcus aureus, S500
# Method: as §1, §2, §3, §4
# S. aureus Smith = conditions: Staphylococcus aureus
# Method: as §1, §2, §3, §4
# S. aureus VA16951 = conditions: Staphylococcus aureus, VA16951
# Method: as §1, §2, §3, §4
# S. enterococcus 0-2-13 = conditions: Enterococcus, 0213
# Method: as §1, §2, §3, §4
# S. epidermidis (12228) = conditions: Staphylococcus epidermidis, ATCC12228
# Method: as §1, §2, §3, §4
# S. epidermidis (17917) = conditions: Staphylococcus epidermidis, ATCC17917
# Method: as §1, §2, §3, §4
# S. epidermidis 1-3-H = conditions: Staphylococcus epidermidis, 13H
# Method: as §1, §2, §3, §4
# S. epidermidis 2-1-B = conditions: Staphylococcus epidermidis, 21B
# Method: as §1, §2, §3, §4
# S. faecalis (11700) = conditions: Enterococcus faecalis, ATCC11700
# Method: as §1, §2, §3, §4
# S. faecalis 4510 = conditions: Enterococcus faecalis, 4510
# Method: as §1, §2, §3, §4
# S. pneumoniae Type I = conditions: Streptococcus pneumoniae
# Method: as §1, §2, §3, §4
smiles,measurement,setting,value
CN[C@H](CC(C)C)C(=O)N[C@H]1C(=O)N[C@@H](CC(N)=O)C(=O)N[C@H]2C(=O)N[C@H]3C(=O)N[C@H](C(=O)N[C@H](C(=O)O)c4cc(O)cc(O)c4-c4cc3ccc4O)[C@H](O)c3ccc(c(Cl)c3)Oc3cc2cc(c3O[C@@H]2O[C@H](CO)[C@@H](O)[C@H](O)[C@H]2O[C@H]2C[C@](C)(N)[C@H](O)[C@H](C)O2)Oc2ccc(cc2Cl)[C@H]1O [Vancomycin],MBC,S. aureus (25923),1 µg/mL
same,MIC,S. aureus (25923),1 µg/mL
same,MBC,S. aureus 10-81,1 µg/mL
same,MIC,S. aureus 10-81,1 µg/mL
same,MBC,S. aureus 13-8-A,0.5 µg/mL
same,MIC,S. aureus 13-8-A,0.5 µg/mL
same,MBC,S. aureus 21-81A,1 µg/mL
same,MIC,S. aureus 21-81A,0.5 µg/mL
same,MBC,S. aureus 24-81,0.5 µg/mL
same,MIC,S. aureus 24-81,0.5 µg/mL
same,MBC,S. aureus 34-81,0.5 µg/mL
same,MIC,S. aureus 34-81,0.5 µg/mL
same,MBC,S. aureus 39881,1 µg/mL
same,MIC,S. aureus 39881,1 µg/mL
same,MBC,S. aureus 4-81,0.5 µg/mL
same,MIC,S. aureus 4-81,0.5 µg/mL
same,MBC,S. aureus 41-81,1 µg/mL
same,MIC,S. aureus 41-81,1 µg/mL
same,MBC,S. aureus Glorgio,1 µg/mL
same,MIC,S. aureus Glorgio,1 µg/mL
same,MBC,S. aureus S-234,1 µg/mL
same,MIC,S. aureus S-234,1 µg/mL
same,MBC,S. aureus S-500,1 µg/mL
same,MIC,S. aureus S-500,1 µg/mL
same,MBC,S. aureus Smith,1 µg/mL
same,MIC,S. aureus Smith,1 µg/mL
same,MBC,S. aureus VA16951,1 µg/mL
same,MIC,S. aureus VA16951,1 µg/mL
same,MBC,S. enterococcus 0-2-13,16 µg/mL
same,MIC,S. enterococcus 0-2-13,0.25 µg/mL
same,MBC,S. epidermidis (12228),1 µg/mL
same,MIC,S. epidermidis (12228),1 µg/mL
same,MBC,S. epidermidis (17917),1 µg/mL
same,MIC,S. epidermidis (17917),1 µg/mL
same,MBC,S. epidermidis 1-3-H,1 µg/mL
same,MIC,S. epidermidis 1-3-H,1 µg/mL
same,MBC,S. epidermidis 2-1-B,2 µg/mL
same,MIC,S. epidermidis 2-1-B,1 µg/mL
same,MBC,S. faecalis (11700),> 125 µg/mL
same,MIC,S. faecalis (11700),1 µg/mL
same,MBC,S. faecalis 4510,> 125 µg/mL
same,MIC,S. faecalis 4510,2 µg/mL
same,MBC,S. pneumoniae Type I,16 µg/mL
same,MIC,S. pneumoniae Type I,16 µg/mL
